Active and inactive are the calls of the source.
Legend:
[1] = molecular target: Beta-2 adrenergic receptor (Homo sapiens, UniProt P07550); experiment: ADRB2 activation measured by internalization – cell-based, FAP fluorogen, flow cytometry, cherry pick 1, dose response (AID 588763); type: functional
[2] = viability of PTEN-deleted HCT116 cells – cell-based, HCT116 PTEN knockout, dose response (AID 1047); type: functional;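 note: HCT116 colon tumor cells with PTEN knocked out; cells exposed to compound for 60 hours before readout; potency for loss of cell viability measured by luminescence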
[3] = microbe, parasite or virus in culture; type: functional; settings: Mycobacterium tuberculosis
CAAX prenyl protease 2 [4] = molecular target: CAAX prenyl protease 2 (Homo sapiens, UniProt Q9Y256); experiment: inhibition of Ras-converting CAAX protease Rce1 – biochemical, yeast membranes, quenched-peptide fluorescence, cherry-pick, dose response (AID 588849)
CAAX prenyl protease 2 (Homo sapiens, UniProt Q9Y256), sequence (Q9Y256 whole entry): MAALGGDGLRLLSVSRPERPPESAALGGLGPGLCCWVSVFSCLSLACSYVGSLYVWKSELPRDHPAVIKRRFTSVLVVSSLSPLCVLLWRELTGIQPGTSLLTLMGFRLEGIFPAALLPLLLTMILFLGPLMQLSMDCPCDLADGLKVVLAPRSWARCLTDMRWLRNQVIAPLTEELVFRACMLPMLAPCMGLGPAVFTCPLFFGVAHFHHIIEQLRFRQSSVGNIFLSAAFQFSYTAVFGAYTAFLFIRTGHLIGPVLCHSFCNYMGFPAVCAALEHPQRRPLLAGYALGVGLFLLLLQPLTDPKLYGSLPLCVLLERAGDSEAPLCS

CAAX prenyl protease 2 [5] = molecular target: CAAX prenyl protease 2 (Saccharomyces cerevisiae S288c, UniProt Q03530); type: biochemical
CAAX prenyl protease 2 (Saccharomyces cerevisiae S288c, UniProt Q03530), sequence (Q03530 whole entry): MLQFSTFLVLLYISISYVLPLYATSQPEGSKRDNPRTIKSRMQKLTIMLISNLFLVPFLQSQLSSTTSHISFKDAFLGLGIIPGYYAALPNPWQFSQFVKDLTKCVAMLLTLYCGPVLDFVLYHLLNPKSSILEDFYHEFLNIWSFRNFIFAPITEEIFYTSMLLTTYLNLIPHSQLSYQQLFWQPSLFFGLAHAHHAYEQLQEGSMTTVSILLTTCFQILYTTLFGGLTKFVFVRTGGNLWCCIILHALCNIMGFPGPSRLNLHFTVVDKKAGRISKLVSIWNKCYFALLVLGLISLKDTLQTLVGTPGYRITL

[6] = Luminescence Cell-Based Dose Retest to Confirm Inhibitors of Cancer Stem Cells. [Related pubchem assays (depositor defined):AID2717, AID2721]; type: functional; settings: Homo sapiens
Protein skinhead-1 = molecular target: T1, Protein skinhead-1 (Caenorhabditis elegans, UniProt P34707); type: functional
T1 sequence (P34707 whole entry): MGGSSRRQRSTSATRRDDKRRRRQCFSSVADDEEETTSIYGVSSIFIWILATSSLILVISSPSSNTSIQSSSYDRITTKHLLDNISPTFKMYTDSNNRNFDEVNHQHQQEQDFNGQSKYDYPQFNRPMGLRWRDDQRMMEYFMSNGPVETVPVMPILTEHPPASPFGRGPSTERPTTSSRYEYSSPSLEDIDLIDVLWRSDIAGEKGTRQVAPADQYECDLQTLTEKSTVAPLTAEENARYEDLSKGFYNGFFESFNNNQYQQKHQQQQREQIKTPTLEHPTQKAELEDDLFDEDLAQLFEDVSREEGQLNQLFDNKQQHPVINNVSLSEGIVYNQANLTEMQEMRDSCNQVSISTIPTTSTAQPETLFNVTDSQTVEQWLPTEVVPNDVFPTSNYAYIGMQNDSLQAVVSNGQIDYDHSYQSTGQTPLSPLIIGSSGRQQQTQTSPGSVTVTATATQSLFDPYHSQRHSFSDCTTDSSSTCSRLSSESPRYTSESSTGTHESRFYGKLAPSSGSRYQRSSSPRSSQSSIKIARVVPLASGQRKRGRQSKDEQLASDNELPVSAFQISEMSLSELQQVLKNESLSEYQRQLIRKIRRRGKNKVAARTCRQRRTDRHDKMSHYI

[7] = viability of HCT116 lacking mutant beta-catenin – cell-based, human colon tumor, dose response (AID 1045); type: functional;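 note: HCT116 colon tumor cells with beta catenin knocked out; cells exposed to compound for 60 hours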
Trypsin = Trypsin (Sus scrofa, UniProt P00761); experiment: trypsin protease activity blockade – biochemical, quenched peptide fluorescence, cherry-pick, selectivity assay for Rce1 protease inhibitor project, dose response (AID 488789)
Trypsin, sequence (P00761 whole entry): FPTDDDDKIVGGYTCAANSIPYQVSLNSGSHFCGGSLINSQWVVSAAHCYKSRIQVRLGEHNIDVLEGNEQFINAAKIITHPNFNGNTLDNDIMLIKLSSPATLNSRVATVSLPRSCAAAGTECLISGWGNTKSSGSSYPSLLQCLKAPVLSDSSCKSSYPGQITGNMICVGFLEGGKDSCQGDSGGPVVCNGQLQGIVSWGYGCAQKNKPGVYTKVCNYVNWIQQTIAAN

HEK293 [8] = experiment: optical interference in Abeta FP readout, dose response, artefact control for IDE activator project, biochemical, fluorescence polarization (AID 588442); type: functional, cell-based; settings: Homo sapiens
HEK293 [9] = experiment: membrane integrity loss in HEK cells – cell-based, fluorescence, cytotoxicity control for IDE activator project, dose response (AID 588440); type: functional; settings: Homo sapiens;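 note: cytotoxicity by LDH release measuring loss of membrane integrity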
Insulin-degrading enzyme [10] = molecular target: T2, Insulin-degrading enzyme (Homo sapiens, UniProt P14735); experiment: cellular IDE activation of Abeta substrate cleavage – fluorescence polarization, HEK cells, dose response (AID 588439); type: functional, cell-based
T2 sequence (P14735 whole entry): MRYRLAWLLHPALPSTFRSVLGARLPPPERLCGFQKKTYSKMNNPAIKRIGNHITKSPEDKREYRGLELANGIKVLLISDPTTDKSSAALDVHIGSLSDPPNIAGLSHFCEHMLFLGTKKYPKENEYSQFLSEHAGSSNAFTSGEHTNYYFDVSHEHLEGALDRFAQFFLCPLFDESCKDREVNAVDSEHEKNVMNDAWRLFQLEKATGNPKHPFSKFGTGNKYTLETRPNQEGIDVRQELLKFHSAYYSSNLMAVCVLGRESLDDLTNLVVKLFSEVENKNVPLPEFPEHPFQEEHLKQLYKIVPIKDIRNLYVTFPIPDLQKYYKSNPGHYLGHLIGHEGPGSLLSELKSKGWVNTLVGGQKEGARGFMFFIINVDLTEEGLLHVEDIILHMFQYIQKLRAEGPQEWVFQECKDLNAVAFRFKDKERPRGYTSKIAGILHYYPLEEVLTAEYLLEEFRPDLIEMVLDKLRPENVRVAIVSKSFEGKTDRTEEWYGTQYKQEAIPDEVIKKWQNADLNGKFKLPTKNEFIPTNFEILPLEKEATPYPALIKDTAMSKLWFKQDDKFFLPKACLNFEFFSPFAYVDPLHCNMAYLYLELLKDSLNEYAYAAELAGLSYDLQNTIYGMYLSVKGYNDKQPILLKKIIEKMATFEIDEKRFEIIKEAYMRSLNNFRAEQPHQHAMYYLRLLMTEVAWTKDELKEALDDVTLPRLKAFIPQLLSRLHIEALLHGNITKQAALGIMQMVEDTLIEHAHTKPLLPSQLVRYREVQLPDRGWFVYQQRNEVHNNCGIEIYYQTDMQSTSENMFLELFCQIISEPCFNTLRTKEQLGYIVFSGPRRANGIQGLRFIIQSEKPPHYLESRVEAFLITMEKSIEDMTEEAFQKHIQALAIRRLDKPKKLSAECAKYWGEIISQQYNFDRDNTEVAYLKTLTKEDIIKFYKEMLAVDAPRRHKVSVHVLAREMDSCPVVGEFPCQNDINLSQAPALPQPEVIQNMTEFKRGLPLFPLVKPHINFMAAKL

[11] = system: Streptococcus sp. 'group A'; experiment: Streptococcus pyogenes SK(-)GAS viability under kanamycin – luminescence, BacTiterGlo, confirmation, counter-screen for streptokinase expression inhibitor project, dose response (AID 1900); type: functional, organism-based
[12] = molecular target: Heat shock protein HSP 90-alpha (Homo sapiens, UniProt P07900); type: functional, organism-based
Insulin-degrading enzyme [13] = molecular target: T2, Insulin-degrading enzyme; experiment: recombinant IDE activation, cell-free – biochemical, fluorescence polarization, counter-screen for IDE activator project, dose response (AID 588681)
Streptococcus = experiment: GAS UMAA2166 growth inhibition – luminescence, BacTiterGlo, counter-screen for streptokinase expression inhibitor project, dose response (AID 1915); type: functional, organism-based;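 note: potency for reduction of bacterial viability or growth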
Streptokinase A = molecular target: T3, Streptokinase A (Streptococcus pyogenes serotype M1, UniProt P10520); experiment: viability-normalized secreted streptokinase activity reduction – plasminogen activation absorbance, OD405, dose response (AID 1914); type: functional, Streptococcus pyogenes M1 GAS;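 note: secreted streptokinase activity via plasminogen activation per viability signal from cell pellet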
T3 sequence (P10520 whole entry): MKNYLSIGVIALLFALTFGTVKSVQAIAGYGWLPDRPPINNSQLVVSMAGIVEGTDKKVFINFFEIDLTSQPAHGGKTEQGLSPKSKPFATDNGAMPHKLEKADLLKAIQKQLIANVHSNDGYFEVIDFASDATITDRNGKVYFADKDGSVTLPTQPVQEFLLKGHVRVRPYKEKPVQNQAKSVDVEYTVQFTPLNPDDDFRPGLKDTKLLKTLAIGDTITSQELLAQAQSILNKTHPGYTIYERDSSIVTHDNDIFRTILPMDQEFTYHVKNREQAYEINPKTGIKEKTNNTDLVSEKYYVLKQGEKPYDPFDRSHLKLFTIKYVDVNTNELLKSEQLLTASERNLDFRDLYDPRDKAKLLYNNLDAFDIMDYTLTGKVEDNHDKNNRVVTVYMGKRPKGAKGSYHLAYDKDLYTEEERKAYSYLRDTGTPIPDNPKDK

[14] = molecular target: T4, Nuclear receptor subfamily 0 group B member 1 (Homo sapiens, UniProt P51843); experiment: Luminescence-based cell-based high throughput dose response assay for inhibitors of the orphan nuclear receptor subfamily 0, group B, member 1 (DAX1; NR0B1). [Related pubchem assays (depositor defined):AID504766, AID504790]; type: functional
T4 sequence (P51843 whole entry): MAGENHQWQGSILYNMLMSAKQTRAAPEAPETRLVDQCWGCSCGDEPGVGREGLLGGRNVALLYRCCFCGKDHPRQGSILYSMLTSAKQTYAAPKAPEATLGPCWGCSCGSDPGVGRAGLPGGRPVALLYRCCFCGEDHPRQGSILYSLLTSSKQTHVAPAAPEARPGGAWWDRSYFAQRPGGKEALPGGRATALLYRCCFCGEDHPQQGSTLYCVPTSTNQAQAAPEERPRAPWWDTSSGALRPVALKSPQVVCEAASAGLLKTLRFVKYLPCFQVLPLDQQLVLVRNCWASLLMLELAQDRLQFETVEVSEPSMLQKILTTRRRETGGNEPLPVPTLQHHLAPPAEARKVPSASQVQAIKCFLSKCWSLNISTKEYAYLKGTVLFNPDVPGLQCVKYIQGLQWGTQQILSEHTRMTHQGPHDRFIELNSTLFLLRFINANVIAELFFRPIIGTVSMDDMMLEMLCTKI

HEK293 [15] = experiment: cells; type: functional, cell-based; settings: Homo sapiens
Large T antigen = Large T antigen (Simian virus 40, UniProt P03070); type: functional, Betapolyomavirus macacae;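 note: Confirmatory-stage PubChem screen for compounds that inhibit SV40 T antigen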
Large T antigen, sequence (P03070 whole entry): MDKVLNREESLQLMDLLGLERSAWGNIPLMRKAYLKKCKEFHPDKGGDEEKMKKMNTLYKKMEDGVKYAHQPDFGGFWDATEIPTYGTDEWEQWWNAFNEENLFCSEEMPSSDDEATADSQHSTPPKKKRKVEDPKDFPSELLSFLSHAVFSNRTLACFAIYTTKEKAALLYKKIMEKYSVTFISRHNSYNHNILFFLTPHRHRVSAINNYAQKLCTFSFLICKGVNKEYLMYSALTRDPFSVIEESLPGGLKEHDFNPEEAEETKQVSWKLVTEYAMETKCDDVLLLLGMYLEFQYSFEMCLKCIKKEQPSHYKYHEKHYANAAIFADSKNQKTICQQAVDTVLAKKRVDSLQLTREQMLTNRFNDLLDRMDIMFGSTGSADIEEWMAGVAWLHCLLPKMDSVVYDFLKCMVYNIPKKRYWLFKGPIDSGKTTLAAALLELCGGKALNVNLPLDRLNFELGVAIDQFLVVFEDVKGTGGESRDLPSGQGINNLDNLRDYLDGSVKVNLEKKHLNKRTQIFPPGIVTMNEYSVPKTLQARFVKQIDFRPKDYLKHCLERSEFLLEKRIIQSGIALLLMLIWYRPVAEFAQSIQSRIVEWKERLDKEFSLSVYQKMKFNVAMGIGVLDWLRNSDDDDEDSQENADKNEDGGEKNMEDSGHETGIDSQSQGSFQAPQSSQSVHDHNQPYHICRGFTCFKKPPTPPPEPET

Beta-2 adrenergic receptor, sequence (P07550 whole entry): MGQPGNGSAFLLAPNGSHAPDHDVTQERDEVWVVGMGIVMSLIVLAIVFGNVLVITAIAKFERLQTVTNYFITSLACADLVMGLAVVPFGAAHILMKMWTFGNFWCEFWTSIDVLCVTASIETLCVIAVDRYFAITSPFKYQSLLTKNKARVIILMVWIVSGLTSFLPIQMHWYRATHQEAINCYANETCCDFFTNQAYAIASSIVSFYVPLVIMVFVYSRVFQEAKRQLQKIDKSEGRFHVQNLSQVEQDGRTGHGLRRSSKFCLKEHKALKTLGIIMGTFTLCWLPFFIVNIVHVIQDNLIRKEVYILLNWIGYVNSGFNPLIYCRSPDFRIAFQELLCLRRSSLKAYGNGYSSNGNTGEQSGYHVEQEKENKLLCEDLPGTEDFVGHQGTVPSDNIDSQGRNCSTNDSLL

With Cc1ccc(C(=O)OCC(=O)Nc2nc(-c3ccccc3)cs2)cc1NC(=O)c1ccco1 as the compound, how does the EC50 [1] read?
Its EC50 is 1.41 µM (active).

Which EC50 [2] does the source give for COc1ccc(CNC(=O)c2c(N)n(CCCN3CCOCC3)c3nc4ccccc4nc23)cc1 here?
Its EC50 is 17.4 µM (active).

And the CC50 [3]?
The CC50 was 24.5 µM (active).

What about the AC50 (CAAX prenyl protease 2 [4]) of the same compound?
The AC50 was 23.9 µM (active).

And the AC50 (CAAX prenyl protease 2 [5])?
The AC50 was 22.9 µM (active).

And the AC50 [6]?
Its AC50 is 6.56 µM (active).

And the IC50 (Protein skinhead-1)?
The IC50 was > 100 µM (inactive).

And the EC50 [7]?
Its EC50 is 15.3 µM (active).

What about the AC50 (Trypsin) of the same compound?
Its AC50 is 10.5 µM (active).

For Oc1cc(OCc2ccccc2)ccc1-c1[nH]ncc1-c1ccccc1, which EC50 (HEK293 [8]) is on record?
Its EC50 is > 55.9 µM (inactive).

What about the IC50 (HEK293 [9]) of the same compound?
The IC50 was 16.9 µM (inactive).

And the EC50 (Insulin-degrading enzyme [10])?
The EC50 was > 54.7 µM (inactive).

What about the EC50 [11] of the same compound?
Its EC50 is 2.88 µM (active).

And the AC50 [12]?
The AC50 was 9.12 µM (active).

What about the EC50 (Insulin-degrading enzyme [13]) of the same compound?
The EC50 was > 54.7 µM (inactive).

And the EC50 (Streptococcus)?
Its EC50 is 10.5 µM (active).

And the EC50 (Streptokinase A)?
Its EC50 is > 150 µM (not active).

Which IC50 [14] does the source give for COc1ccc(S(=O)(=O)Cc2ccc(C(=O)NC3CC3)o2)cc1 here?
Its IC50 is > 67.6 µM (inactive).

And the IC50 (HEK293 [15])?
The IC50 was > 67.6 µM (inactive).

Which results are given for CC(=O)c1cccc(S(=O)(=O)N2CCCC(c3nc(-c4ccc(C)o4)no3)C2)c1 (stereo unspecified)?
IC50 (Large T antigen): 36.4 µM (active); EC50 [1]: 0.143 µM (active)
